Structures are written as SMILES. pIC50: −log10 of the molar value. Where “and” joins values, the source holds several entries; their conditions need not be identical. Identical values can stand only once. Like-named read-outs stand apart in the source and are kept apart here.

The values below come from patent publication US12441739B2, “Glucagon receptor antagonist and use thereof” (LANZHOU UNIVERSITY, priority 2021, dated 2025).

The target of this assay is T1, human glucagon receptor (hGCGR) (Homo sapiens, UniProt P47871).
T1 construct: host or cells: HEK293
T1 sequence (P47871 26-477): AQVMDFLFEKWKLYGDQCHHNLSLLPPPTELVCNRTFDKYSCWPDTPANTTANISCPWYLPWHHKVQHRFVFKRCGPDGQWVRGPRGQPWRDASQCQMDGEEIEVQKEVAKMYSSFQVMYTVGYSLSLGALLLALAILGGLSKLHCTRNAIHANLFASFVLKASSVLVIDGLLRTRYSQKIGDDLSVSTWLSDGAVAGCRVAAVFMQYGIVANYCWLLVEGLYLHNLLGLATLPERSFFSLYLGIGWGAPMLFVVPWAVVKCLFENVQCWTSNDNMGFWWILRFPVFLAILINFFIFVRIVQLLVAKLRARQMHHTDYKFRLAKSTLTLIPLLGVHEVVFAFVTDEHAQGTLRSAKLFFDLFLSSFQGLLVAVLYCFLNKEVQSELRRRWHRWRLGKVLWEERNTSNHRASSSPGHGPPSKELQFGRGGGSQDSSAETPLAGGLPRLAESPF
Nature of the assay: HTRF second messenger cAMP response experiment (called cell viability test) in HEK293 cells with glucagon peptide segment. It counts as cell-based. The note with it: for inhibitory activity of glucagon receptor (in words, from cAMP response curves): FIG. 5 / FIG. 14. The protocol: In order to determine the antagonistic activity of the compound A on the glucagon receptor in the above embodiments, a cell viability test is carried out. The specific implementation is as follows.
A known human glucagon receptor (hGCGR) antagonist drug is selected as a positive control, and the compound A in the above embodiments, a glucagon peptide segment (that is, human full-length glucagon), and human embryonic kidney cells containing target receptor molecules are mixed. The glucagon peptide segment binds to hGCGR to activate the hGCGR signaling pathway and release the second messenger cAMP. The compound A acts as an antagonist to inhibit the activity of hGCGR.
In an exemplary embodiment, a known hGCGR antagonist drug (L-168,049) is selected as a positive control. […] In addition, in view of the human glucagon receptor on the cell membrane of human embryonic kidney cells HEK293, HEK293 is used to test the drug activity of the human glucagon antagonist. In this embodiment, different concentrations of compound A of the present disclosure and the positive control are respectively mixed with glucagon peptide segments and HEK293 cells, the second messenger cAMP is detected through homogeneous time resolved fluorescence (HTRF), and a half maximal inhibitory concentration value of each compound is calculated according to the intensity value of HTRF.
In an exemplary embodiment, the activity of the compound A is tested using the HTRF technique. Specifically, after activation of the glucagon receptor by the glucagon peptide segment, the second messenger cAMP is released from the glucagon receptor cells, the second messenger cAMP may be detected by HTRF, and the half maximal inhibitory concentration (IC50) of the tested compound may be calculated according to the fluorescence intensity.
In an exemplary embodiment, 11 identical concentration gradients are set for the compounds A1 and A2 respectively. The activities of the compounds A1 and A2 are determined by the HTRF second messenger cAMP response experiment in triplicate.
Step S910. Select an antagonist drug of hGCGR as a positive control, and mix each target drug small molecule, a glucagon peptide segment, and human embryonic kidney cells containing the target receptor molecule. The glucagon peptide segment binds to hGCGR to activate the hGCGR signaling pathway and release the second messenger cAMP. The target drug molecule acts as an antagonist to inhibit the activity of hGCGR.
In an exemplary embodiment, an antagonist drug (such as L-168,049) of hGCGR is selected as a positive control. In addition, in view of the human glucagon receptor on the cell membrane of human embryonic kidney cells (such as HEK293), HEK293 may be used to test the drug activity of the human glucagon antagonist. The target drug small molecule, the glucagon peptide segment, and the HEK293 cells containing the target receptor molecule are mixed. The glucagon peptide segment is used to bind to hGCGR to activate the hGCGR signaling pathway and promote the release of the second messenger cAMP. The target drug molecule acts as an antagonist to inhibit the activity of hGCGR.
Step S920. Detect the second messenger cAMP through HTRF, and determine a half maximal inhibitory concentration value of each target drug small molecule according to an intensity value of HTRF.
In an exemplary embodiment, the activity of each target drug small molecule (such as 30 target drug small molecules shown in Table 2) is tested by using the HTRF technique. Specifically, after activation of the glucagon receptor by the glucagon peptide segment, the second messenger cAMP is released from the glucagon receptor cells, the second messenger cAMP may be detected by HTRF, and the half maximal inhibitory concentration (IC50) of the drug molecule may be calculated according to the fluorescence intensity. […]
(In general: TR-FRET usually uses a lanthanide donor and a delayed reading to cut background.)

[1] abbreviates: concentration gradient LogM −5, HEK293 cells, glucagon peptide segment, HTRF cAMP, triplicate columns.
Setting [2] is: concentration gradient LogM −5.477121, HEK293 cells, glucagon peptide segment, HTRF cAMP, triplicate columns.
[3] abbreviates: concentration gradient LogM −5.954243, HEK293 cells, glucagon peptide segment, HTRF cAMP, triplicate columns.
[4] abbreviates: concentration gradient LogM −7.862728, HEK293 cells, glucagon peptide segment, HTRF cAMP, triplicate columns.
Where [5] appears, read: concentration gradient LogM −8.339849, HEK293 cells, glucagon peptide segment, HTRF cAMP, triplicate columns.

For the compound `COc1ccc(NC(=O)c2c(O)c3c4c(sc3[nH]c2=O)C[C@@H](C)CC4)cc1Cl` [Compound C13, (7S)—N-(3-chloro-4-methoxyphenyl)-4-hydroxy-7-methyl-2-oxo-5,6,7,8-tetrahydro-1H-[1]benzothiolo[2,3-b]pyridine-3-carboxamide], the pIC50 (commonly −log10 of the IC50, conventionally taken in molar units) is 6.35 and the “inhibitory activity of glucagon receptor (in words, from cAMP response curves)” value was “have the activity”. The “inhibitory activity of glucagon receptor (in words, from cAMP response curves)” value (listed as A1) is on record as “good inhibitory activity of glucagon receptor”. The Inhibition percentage under setting [1] is 98.37% and 95.2799% and 96.15%. Moreover, under “concentration gradient LogM −5, triplicate, HEK293, cAMP HTRF, listed as A1”, the Inhibition percentage is 98.37 percentage and 95.2799 percentage and 96.15 percentage. For the same compound, the Inhibition percentage under setting [2] is 87.84% and 83.28% and 83.51%. The Inhibition percentage (concentration gradient LogM −5.477121, triplicate, HEK293, cAMP HTRF, listed as A1) was 87.84 percentage and 83.28 percentage and 83.51 percentage. For the same compound, the Inhibition percentage under setting [3] is 75.44% and 83.24% and 79.3%. For the same compound, the Inhibition percentage (concentration gradient LogM −5.954243, triplicate, HEK293, cAMP HTRF, listed as A1) was 75.44 percentage and 83.24 percentage and 79.3 percentage. Also, the Inhibition percentage under setting [4] is 7.62% and −2.135% and −0.781%.

Take `CNC(=O)Cc1ccccc1NC(=O)NCCC(=O)NC1CCCC1` [Compound C24]: the pIC50 is < 5.00.

Regarding `CCCOc1ccc(Br)cc1-c1cc(-c2ccc(Cl)cc2)[nH]c1-c1ccncc1` [L-168,049, 4-[3-(5-bromo-2-propoxyphenyl)-5-(4-chlorophenyl)-1H-pyrrol-2-yl]pyridine, reference compound], the pIC50 (HEK293, cAMP HTRF, 11 concentrations, L-168,049 positive control per group of ten compounds) is 7.21 and 7.38. Further, the Inhibition percentage reads like this: under setting [1], 100.4281% and 100.5604% and 100.8895%; (concentration gradient LogM −5, triplicate, HEK293, cAMP HTRF) 100.4281 percentage; under setting [2], 98.6132% and 96.62% and 98.1315%; (concentration gradient LogM −5.477121, triplicate, HEK293, cAMP HTRF) 98.6132 percentage; under setting [3], 98.05% and 95.17% and 94.46%; (concentration gradient LogM −5.954243, triplicate, HEK293, cAMP HTRF) 98.05 percentage. In addition, the Inhibition percentage by setting is: (concentration gradient LogM −6.431364, HEK293 cells, glucagon peptide segment, HTRF cAMP, triplicate columns) 93.05% and 91.9% and 88.0059%; (concentration gradient LogM −6.431364, triplicate, HEK293, cAMP HTRF) 93.05 percentage; (concentration gradient LogM −6.908485, HEK293 cells, glucagon peptide segment, HTRF cAMP, triplicate columns) 89.46% and 74.79% and 78.16%; (concentration gradient LogM −6.908485, triplicate, HEK293, cAMP HTRF) 89.46 percentage; (concentration gradient LogM −7.385606, HEK293 cells, glucagon peptide segment, HTRF cAMP, triplicate columns) 46.69% and 16.31%; (concentration gradient LogM −7.385606, triplicate, HEK293, cAMP HTRF) 47.8261 percentage. For the same compound, the Inhibition percentage under setting [4] was 33.52% and 15.3532%; the Inhibition percentage (concentration gradient LogM −7.862728, triplicate, HEK293, cAMP HTRF) turned out to be 28.98 percentage; the Inhibition percentage under setting [5] was −19.5336% and −9.209%; the Inhibition percentage (concentration gradient LogM −8.339849, triplicate, HEK293, cAMP HTRF) amounted to 3.941 percentage; the Inhibition percentage (concentration gradient LogM −8.81697, triplicate, HEK293, cAMP HTRF) is reported as −8.051 percentage; the Inhibition percentage (concentration gradient LogM −9.294091, HEK293 cells, glucagon peptide segment, HTRF cAMP, triplicate columns) was 19.0859% and −1.84%. Besides, the Inhibition percentage is −3.763 percentage (concentration gradient LogM −9.294091, triplicate, HEK293, cAMP HTRF); −1.911% and 6.132% and 1.646% (concentration gradient LogM −9.771213, HEK293 cells, glucagon peptide segment, HTRF cAMP, triplicate columns); −1.911 percentage (concentration gradient LogM −9.771213, triplicate, HEK293, cAMP HTRF).

Consider `CSc1cccc(NC(=O)CCNS(=O)(=O)c2ccc(NC(C)=O)cc2)c1` [Compound C17], for which the pIC50 was < 5.00.

On to `O=C(CCNC(=O)NC1CCCCC1)NNc1ccccc1C(F)(F)F` [Compound C27], for which the pIC50 was < 5.00. The Inhibition percentage under setting [5] was −24.7315% and −29.8299% and −20.459%.

Turning to `O=C(CNC(=O)NCCCOC1CCCCC1)Nc1ccc(F)c(F)c1` [Compound C19], the pIC50 was < 5.00.
